Source: PubChem BioAssay (NCI)
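How tested: cells in 96-well plates exposed to compound for 48 hours at five concentrations. GI50 = concentration required for 50% inhibition of growth. The concentration for full growth arrest is given as TGI.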

Legend:
Assay in all cases: NCI-60 cell line screen, 48 h
NCI-H460 lung = system: NCI-H460 lung
NCI-H522 lung = system: NCI-H522 lung
NCI/ADR-RES ovarian = system: NCI/ADR-RES ovarian
OVCAR-3 ovarian = system: OVCAR-3 ovarian
OVCAR-8 ovarian = system: OVCAR-8 ovarian
PC-3 prostate = system: PC-3 prostate
RPMI-8226 leukemia = system: RPMI-8226 leukemia
RXF 393 renal = system: RXF 393 renal
SF-268 CNS = system: SF-268 CNS
SF-295 CNS = system: SF-295 CNS
SF-539 CNS = system: SF-539 CNS
SK-MEL-2 melanoma = system: SK-MEL-2 melanoma
SK-MEL-28 melanoma = system: SK-MEL-28 melanoma
SK-MEL-5 melanoma = system: SK-MEL-5 melanoma
SK-OV-3 ovarian = system: SK-OV-3 ovarian
SN12C renal = system: SN12C renal
SNB-19 CNS = system: SNB-19 CNS
SNB-75 CNS = system: SNB-75 CNS
SR leukemia = system: SR leukemia
SW-620 colon = system: SW-620 colon
T-47D breast = system: T-47D breast
TK-10 renal = system: TK-10 renal
U251 CNS = system: U251 CNS
UACC-257 melanoma = system: UACC-257 melanoma
UACC-62 melanoma = system: UACC-62 melanoma
UO-31 renal = system: UO-31 renal

## CN(C)CCCNC(=O)c1ccc2oc3cc4ccccc4c(=O)n3c2c1
NCI-H460 lung
  TGI: > 50 µM
NCI-H522 lung
  GI50: 17.4 µM
  TGI: > 50 µM
NCI/ADR-RES ovarian
  GI50: > 50 µM
  TGI: > 50 µM
OVCAR-3 ovarian
  GI50: 8.7 µM
  TGI: > 50 µM
OVCAR-8 ovarian
  GI50: 40.5 µM
  TGI: > 50 µM
PC-3 prostate
  GI50: > 50 µM
  TGI: > 50 µM
RPMI-8226 leukemia
  GI50: > 50 µM
  TGI: > 50 µM
RXF 393 renal
  GI50: 41.6 µM
  TGI: > 50 µM
SF-268 CNS
  GI50: 15.4 µM
  TGI: > 50 µM
SF-295 CNS
  GI50: 33.7 µM
  TGI: > 50 µM
SF-539 CNS
  GI50: 13.6 µM
  TGI: 30.5 µM
SK-MEL-2 melanoma
  GI50: > 50 µM
  TGI: > 50 µM
SK-MEL-28 melanoma
  GI50: 19.9 µM
  TGI: > 50 µM
SK-MEL-5 melanoma
  GI50: 11.2 µM
  TGI: 28.8 µM
SK-OV-3 ovarian
  GI50: > 50 µM
  TGI: > 50 µM
SN12C renal
  GI50: 45.6 µM
  TGI: > 50 µM
SNB-19 CNS
  GI50: > 50 µM
  TGI: > 50 µM
SNB-75 CNS
  GI50: 12.6 µM
  TGI: 33.1 µM
SR leukemia
  GI50: 30.8 µM
  TGI: > 50 µM
SW-620 colon
  GI50: 24.3 µM
  TGI: > 50 µM
T-47D breast
  GI50: > 50 µM
  TGI: > 50 µM
TK-10 renal
  GI50: 10.3 µM
  TGI: > 50 µM
U251 CNS
  GI50: 37.5 µM
  TGI: > 50 µM
UACC-257 melanoma
  GI50: 20.6 µM
  TGI: > 50 µM
UACC-62 melanoma
  GI50: > 50 µM
  TGI: > 50 µM
UO-31 renal
  GI50: 18.3 µM
  TGI: > 50 µM
